Patent publication US20260242390A1, “TOTAL SYNTHESES OF PORTIMINE A AND ANALOGUES THEREOF AS SMALL MOLECULE MODULATORS OF NMD3” (priority 2023, published 2026)

Key:
human PBMCs = assay: Immunoblot of caspase-3 in PBMCs; assay type: cell-based
Text: FIG. 3. Initial SAR studies: Assessing activity of PAL functionalized PTMA analogs. […] (A) PA and Ph-PA show less toxic to healthy PBMCs compared to Jurkat cells. […] (B) Immunoblot of caspase-3 in Jurkat and PBMCs with indicated conditions.
• 1) Portimine A and its functional analogs show stereo-selective acute toxicity in cancer cells (FIG. 1). […] (B) Structure of portimine related analogs: phenyl-portimine A (Ph-PA, 36) and epi-portimine A (ePA, 38). Structure of fully functionalized portimine A-based epimeric probe pair: portimine A-diazirine-alkyne (PA-DA, 35-2) and epi-portimine A-diazirine-alkyne (ePA-DA, 35-1). (C) Cell viability analysis of portimine A and analogs. Jurkat cells were treated with increasing concentrations of portimine A and analogs for 24 hours. All presented data as mean of biological replicated experiments (n=3). […] Jurkat cells were treated with portimine A or analogs for 12 hours at 10 nM. […] Structurally related negative control ePA and PB are non-toxic in all cell types in the current concentrate range. PBMCs (25k per well), Jurkat (10k per well). […] Cell cycle analysis in Jurkat cells (FIG. 2). […] Cell lysates were fractionated by sucrose gradient (5-50%) and each fraction were analyzed by western blot. eIF6 levels increase in 60S subunit fraction and decrease in ribosome-free fractions after PA treatment. […]

MC38 = assay: Broad cell line profiling, MC38; assay type: cell-based; conditions: MC-38; MC38, Mouse Colon Carcinoma; read-out: PA IC50
Text: • A panel of human and mouse cancer cell types used to assess the breadth of PA activity, including multiple therapy resistant metastatic mesenchymal tumor cell lines and primary glioblastoma patient-derived metastatic stem/tumor initiating cell populations.

HCC1806 = assay: Cell toxicity in HCC1806 cells; assay type: cell-based, human; conditions: 36-hour treatment

| Structure (SMILES) | caspase-3 cleavage in human PBMCs (human PBMCs) | IC50 (MC38) | cell toxicity in breast (HCC1806) cancer cell line (HCC1806) |
| --- | --- | --- | --- |
| C=CC1=C[C@@H]2[C@@H]3O[C@]4(CC[C@H](O4)C(C)C[C@@H](O)C3=O)CC(O)C3=NCC[C@@]32CC1 (some centres unmarked) [PA, portimine A] | but not human PBMCs | 0.55 nM |  |
| C#CCCC1(CCNC(=O)c2ccc(C3=C[C@@H]4[C@@H]5O[C@]6(CC[C@H](O6)C(C)C[C@@H](O)C5=O)CC(O)C5=NCC[C@@]54CC3)cc2)N=N1 (some centres unmarked) [PA-DA, portimine A-diazirine-alkyne] | but not human PBMCs |  |  |
| C=CC1=C[C@@H]2[C@@H]3OC4(CC[C@H](O4)C(C)C[C@@H](O)C3=O)CC(=O)C3=NCC[C@@]32CC1 (some centres unmarked) [PB, portimine B] |  |  | minimal effects |
| C=CC1=C[C@@H]2[C@@H]3O[C@]4(CC[C@H](O4)C(C)C[C@@H](O)C3=O)C[C@@H](O)C3=NCC[C@@]32CC1 (stereo partly drawn) [ePA, epi-portimine A] |  |  | minimal effects |
